Laboratory results as given in patent US8168677B2, “Method for treatment of inflammatory bowel disease” (Kemphys Ltd., priority 2005, dated 2012).
“And” between values parts separate entries of the source, which are not always exact repeats. Equal entries are not always repeated.

Legend:
[1] = test system: rat model of inflammatory bowel disease (DNBS instilled intracolonically); assay: Evaluation of retinoids which bind to RAR and RXR using DNBS-induced rat model of inflammatory bowel disease (Example 2); assay type: in vivo, Wistar rats; conditions: for Bowel Inflammation Score [average]: 24 h and 2 h before DNBS and once daily for 5 days, macroscopic score 0-10, N = 5; for Presence or Absence of Adhesion (in five rats per group): number of animals with adhesion
Method: Male or female Wistar rats weighing 200±5 g were used to create an animal model of inflammatory bowel disease. After the animals were fasted for 24 hours, DNBS (2,4-Dinotrobenzenesulfonic Acid, 30 mg in 0.5 ml 30% ethanol) was instilled intracolonically through the anus. As the medicaments of the present invention, 4-[2,3-(2,5-dimethyl-2,5-hexano)dibenzo[b,f][1,4]thiazepin-11-yl] benzoic acid (HX630) at 3 mg/kg, 4-(5H-7,8,9,10-tetrahydro-5,7,7,10,10-pentamethylbenzo[e]naphtho[2,3-b][1,4]diazepin-13-yl)benzoic acid (LE135) at 5 mg/kg, or a combination of 0.1 mg/kg of Am80 and 3 mg/kg of HX630 were used, and as a comparative example (positive control drug), 300mg/kg of salazosulfapyridine (SASP) as a commercially available drug for ulcerative colitis was used, and each drug was administered 24 hours before and 2 hours before the DNBS infusion, and once daily for 5 days after 24 hours from the infusion. Each drug was administered orally as a suspension in 0.5% carboxymethylcellulose. For the control group, the solvent was administered orally according to the same schedule. The animals were subjected to anatomic examination 24 hours after the final administration, and a degree of bowel inflammation was observed. For each of the Tamibarotene-administered group, SASP-administered group, the normal group, and the control group, five rats were used.
(§1) The results are indicated as the scores of bowel inflammation (average), weight of the colon per unit body weight (100 g body weight) (average±standard error), and the number of animals in each group that gave adhesion. The scoring of bowel inflammation were conducted by visual observation according to the method of judgment described in the reference (Am. J. Physiol., 258: G527-34, 1990). • Score of Bowel Ulceration and Inflammation (Macroscopic) • Score: observation • 0: Normal; • 1: Localized hyperemia, no ulcers; • 2: Ulceration without hyperemia or colonic wall thickening; • 3: Inflammation and ulceration at one site; • 4: Ulcers and Inflammations at two or more sites; • 5: A major damaged site extending in 1 cm or longer along the direction of the colon length; and • 6-10: When a major damaged site extends in 2 cm or longer along the direction of the colon length, a score is increased by one for each additional 1 cm over 2 cm.

[2] = test system: model rat of inflammatory bowel disease (DNBS instilled intracolonically); assay: Evaluation of Am80 using DNBS-induced model rat of inflammatory bowel disease (Example 1); assay type: in vivo, Wistar rats; conditions: for Presence or Absence of Adhesion (in five rats per group): number of animals with adhesion
Method: Male or female Wistar rats weighing 200±5 g were used to create an animal model of inflammatory bowel disease. After the animals were fasted for 24 hours, DNBS (2,4-Dinotrobenzenesulfonic Acid, 30 mg in 0.5 ml 30% ethanol) was instilled intracolonically through the anus. Each of 4-[(5,6,7,8-tetrahydro-5,5,8,8-tetramethyl-2-naphthalenyl)carbamoyl]benzoic acid (Am80, generic name: Tamibarotene) as the medicament of the present invention so as to be a dose at 0.3 mg/kg, and salazosulfapyridine (SASP), a commercially available drug for ulcerative colitis, as a comparative example (positive control drug) so as to be a dose at 300 mg/kg was administered 24 hours before and 2 hours before the DNBS infusion, and once daily for 5 days after 24 hours from the infusion. Tamibarotene or SASP was each administered orally as a suspension in 0.5% carboxymethylcellulose. For the control group, the solvent was administered orally according to the same schedule as that for SASP. The animals were subjected to anatomic examination 24 hours after the final administration, and a degree of bowel inflammation was observed. For each of the Tamibarotene-administered group, SASP-administered group, the normal group, and the control group, five rats were used.
as §1, with “of the bowel per unit” for “of the colon per unit”

Q: What does the source list for `CC1(C)CCC(C)(C)c2cc3c(cc21)Sc1ccccc1N=C3c1ccc(C(=O)O)cc1` [HX630, 4-[2,3-(2,5-dimethyl-2,5-hexano)dibenzo[b,f][1,4]thiazepin-11-yl] benzoic acid]?
A: Bowel Inflammation Score [average] ([1]; HX630 3 mg/kg oral): 3.4; Presence or Absence of Adhesion (in five rats per group) ([1]; HX630 3 mg/kg oral): 1/5

Q: Which “Bowel Inflammation Score [average]” value ([1]; LE135 5 mg/kg oral) does the source give for `CN1c2cc3c(cc2N=C(c2ccc(C(=O)O)cc2)c2ccccc21)C(C)(C)CCC3(C)C` [LE135, 4-(5H-7,8,9,10-tetrahydro-5,7,7,10,10-pentamethylbenzo[e]naphtho[2,3-b][1,4]diazepin-13-yl)benzoic acid] here?
A: 2.4

Q: And the “Presence or Absence of Adhesion (in five rats per group)” value ([1]; LE135 5 mg/kg oral)?
A: 0/5

Q: `O=C(O)c1cc(/N=N/c2ccc(S(=O)(=O)Nc3ccccn3)cc2)ccc1O` [SASP, salazosulfapyridine] was tested. Which “Bowel Inflammation Score [average]” value ([2]; SASP 300 mg/kg oral, 24 h and 2 h before DNBS and once daily for 5 days, macroscopic score 0-10, N = 5) did it give?
A: 2

Q: And the “Colon weight/100 g body weight [average]” value ([2]; SASP 300 mg/kg oral, average ± standard error, N = 5)?
A: 0.682 ± 0.023

Q: And the “Presence or Absence of Adhesion (in five rats per group)” value ([2]; SASP 300 mg/kg oral)?
A: 2/5

Q: `CC1(C)CCC(C)(C)c2cc(NC(=O)c3ccc(C(=O)O)cc3)ccc21` [Tamibarotene, 4-[(5,6,7,8-tetrahydro-5,5,8,8-tetramethyl-2-naphthalenyl)carbamoyl]benzoic acid] was tested. Which “Presence or Absence of Adhesion (in five rats per group)” value ([2]; Tamibarotene 0.3 mg/kg oral) did it give?
A: significantly suppressed and 0/5
